Structures are written as SMILES.

The source of these data is patent US20070093469A1, “Substituted azetidine compounds as cyclooxygenase-1-cyclooxygenase-2 inhibitors, and their preparation and use as medicaments” (LABORATORIOS DEL DR. ESTEVE S.A, priority 2004, published 2007).

Data set [1] deals with PGE2 production in rat inflammatory exudate. The experiment in a line: PGE2 production in rat inflammatory exudate. It counts as in vivo. Particulars: rats, oral route, carrageenan sponge implant, read-out: PGE2 Inflam. exudade ED50. The protocol:
VI: PGE2 Production in Rat Inflammatory Exudate and Gastric Mucosa
The PGE2 production in rat inflammatory exudate and gastric mucosa is carried out as described in the publication of O Tofanetti et al., “Effect of nimesulide on cyclo-oxygenase activity in rat gastric mucosa and inflammatory exudate”, Med Sci Res 17, 745-746 (1989). The respective part of the description is hereby incorporated by reference and forms part of the present disclosure.
For this text 6 male wistar rats (Interfauna-St Feliú de Codines, Barcelona) of approximately 200 g (each approximately 6 weeks of age) are used. The compounds to be tested are administered via oral route in gum Arabic at 5% (weight/volume) at a rate of 10 ml/kg.
One hour after administration of the compounds and under halothane anaesthesia, each rat is implanted subcutaneously in the interescapular area a 40×15×5 mm polyester sponge, soaked in a 0.5% suspension of carrageenan. Rats are sacrificed 6 hours after the implant, the sponges are removed and squeezed. The exudates are collected and centrifuged at 6000×G for 15 minutes.
The rats's stomachs are removed and the gastric mucosa is detached from the underlying layers and by means of a 10 mm diameter die, mucosa samples from an area between the gastric corpus and pyloric antrum are taken. The mucosal PGE2 is extracted. PGE2 concentrations from the inflammatory exudates and the gastric mucosa are determined by means of inmmunoassay reagents of Cayman Chemical kit, Ann Arbor, Mich., U.S.A. (Catalogue number: 514010) according to the manufacturer's instructions.

In the next data set the target is T1, Cox-2 (Homo sapiens, UniProt P35354).
T1 construct: 0.5 ml of fresh human blood; from tissue; host or cells: fresh human whole blood stimulated with E. coli 0111:B4 LPS
T1 sequence (P35354 18-604): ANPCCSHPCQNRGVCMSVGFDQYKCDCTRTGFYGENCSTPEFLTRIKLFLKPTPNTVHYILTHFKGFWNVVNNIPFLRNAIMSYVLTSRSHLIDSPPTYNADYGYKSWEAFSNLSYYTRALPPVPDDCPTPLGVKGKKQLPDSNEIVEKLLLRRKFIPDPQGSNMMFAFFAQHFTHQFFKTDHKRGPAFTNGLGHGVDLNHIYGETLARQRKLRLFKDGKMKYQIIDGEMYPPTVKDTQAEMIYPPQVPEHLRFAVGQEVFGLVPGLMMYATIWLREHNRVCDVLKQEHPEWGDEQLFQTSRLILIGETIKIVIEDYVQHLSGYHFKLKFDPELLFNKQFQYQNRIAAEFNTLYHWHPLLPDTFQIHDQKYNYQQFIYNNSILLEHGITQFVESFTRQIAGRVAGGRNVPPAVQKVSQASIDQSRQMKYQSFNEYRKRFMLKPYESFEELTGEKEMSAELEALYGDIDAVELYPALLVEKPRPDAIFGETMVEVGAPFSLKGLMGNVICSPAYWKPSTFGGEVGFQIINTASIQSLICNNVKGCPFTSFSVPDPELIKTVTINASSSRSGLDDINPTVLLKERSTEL
The experiment in a line: Cox-2 activity in human whole blood (LPS, PGE2). It counts as cell-based. Particulars: read-out: hWB inhibition COX-2 IC50. The protocol: II. Determination of Cox-1- and Cox-2-Activity in Human Whole Blood
The Cox-1- and Cox-2-activity in human whole blood is determined according to a modification of the method described in the publication of C. Brideau et al., “A human whole blood assay for clinical evaluation of biochemical efficacy of cyclooxygenase inhibitors”, Inflamm Res 1996; 45: 68-74. The respective part of the description is hereby incorporated by reference and forms part of the present disclosure.
For Cox-2 activity determination, tubes are prepared with 2 μl of the compound to be tested or DMSO, 12 μg/ml of aspirine, 9 μl of 1% (weight/volume) sodium heparine and 0.5 ml of fresh human blood. Samples are pre-incubated at 37° C. during 15 minutes and E. coli 0111:B4 LPS (from Sigma Chemical, St. Louis, Mo. U.S.A., catalogue number L-3012) are added for incubation during 24 h at 37° C. The samples are centrifuged for 100 μl of plasma collection. 400 μl of Ethyl acetate and 1% (volume/volume) methanol are added to each sample and the tubes are stirred and centrifuged for 10 minutes at 5000 g at 4° C. 300μl of supernatant are aspirated and evaporated under nitrogen atmosphere. Prostaglandin E2 concentration is quantified using an assay kit from Cayman Chemical, Ann-Arbor, Mich., U.S.A. (Catalogue number: 514010 ) after reconstitution into 300 μl assay buffer supplied in the assay kit.

In a further data set the target is T2, Cox-1 enzyme (Ovis aries, UniProt P05979).
T2 construct: purchased Cayman Chemical 60100
T2 sequence (P05979 25-600): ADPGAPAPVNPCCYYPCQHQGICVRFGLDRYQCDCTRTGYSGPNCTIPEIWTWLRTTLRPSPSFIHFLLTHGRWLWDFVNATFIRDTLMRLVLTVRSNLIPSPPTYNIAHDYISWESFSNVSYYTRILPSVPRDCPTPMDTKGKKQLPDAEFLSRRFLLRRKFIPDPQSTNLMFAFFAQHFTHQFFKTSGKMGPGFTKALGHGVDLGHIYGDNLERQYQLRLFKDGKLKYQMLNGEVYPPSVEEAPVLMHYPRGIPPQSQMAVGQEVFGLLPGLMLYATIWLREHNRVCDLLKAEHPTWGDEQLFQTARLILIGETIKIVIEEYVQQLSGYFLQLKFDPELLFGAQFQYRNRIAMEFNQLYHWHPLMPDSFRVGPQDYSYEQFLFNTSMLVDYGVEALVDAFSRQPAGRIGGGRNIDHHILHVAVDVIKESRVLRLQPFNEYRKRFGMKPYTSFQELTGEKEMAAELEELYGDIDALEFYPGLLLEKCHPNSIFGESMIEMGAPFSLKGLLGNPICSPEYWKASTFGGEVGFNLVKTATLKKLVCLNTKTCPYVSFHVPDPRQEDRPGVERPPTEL
The experiment in a line: Cox-1/Cox-2 enzyme assay (Cox-1). The format is biochemical. To be noted: for IC50: enzyme assay. On the procedure:
I. Cox-1/Cox-2 Enzyme Assay:
The Cox-1/Cox-2 enzyme assay for the inventive azetidine compounds is carried out according to the following description:
Immediately after the addition of the substrate, the slope corresponding to the optical density increase at 480 nm is recorded for 1 minute. The reaction is monitored with a Hewlett-Packard 8452A spectrophotometer.

For `CC(C)(C)c1cc(C(=O)N2CC(O)C2)cc(C(C)(C)C)c1` [Example 2, (3,5-di-tert-butyl-phenyly)-(3-hydroxy-azetidin-1-yl)-methanone], the melting point – broadly, the temperature of the solid-liquid transition – lay within 146 to 149 °C. Besides, the ED50 – broadly, the dose at which the effect has come halfway, by size or by number of responders – in data set [1] worked out at 5.9 mg/kg. In addition, the IC50 – broadly, the concentration needed to halve the response being measured – on Cox-2 came out at 800 nM. For the same molecule, at Cox-1 enzyme (read-out: % inhibition 5 × 10^−5 M COX-1), the inhibition (as a rule, the percentage by which the read-out fell short of the control) at 50 µM was 9%.
`CC(C)(C)c1cc(C(=O)N2CC(O)C2)cc2c1OCC2(C)C` [Example 14, (7-tert-butyl-3,3-dimethyl-2,3-dihydro-benzofuran-5-yl)-(3-hydroxy-azetidin-1-yl)-methanone] gave a melting point of 144 to 148 °C. For the same molecule, in data set [1], the median effective dose (ED50) worked out at 1.8 mg/kg. The IC50 on Cox-2 stood at 100 nM. On Cox-1 enzyme, this molecule displayed an IC50 of 48300 nM.
The like results for `CC1C(O)CN1C(=O)c1cc(C(C)(C)C)c(O)c(C(C)(C)C)c1` (stereo not drawn) [Example 4, (3,5-di-tert-butyl-4-hydroxy-phenyl)-(3-hydroxy-2-methyl-azetidin-1-yl)-methanone] were, in that order, 162 to 166 °C, 5.8 mg/kg, 500 nM and 246000 nM.
